In patent US5488060A, “Substituted thiadiazoles, compositions containing them and their use as antimicrobial and marine antifouling agents” (The Dow Chemical Company, priority 1994, dated 1996):
In brackets after ≈: the same amount, converted by molar mass. Like-named read-outs stand apart in the source and are kept apart here.

How the values were obtained:
Type in all cases: cell-based
[1] = system: Bacillus subtilis (Bs); test: Minimum inhibitory concentration (MIC) in nutrient agar, Bacillus subtilis
Experimental: (§1) The antimicrobial activity of the compounds of the present invention is set forth as the minimum inhibitory concentration (MIC) for the active compounds and is determined for nine (9) bacteria, using nutrient agar, and seven (7) yeast and fungi, using malt yeast agar. This determination is conducted using a one percent solution of the test compound prepared in a mixture of acetone and water.
(§2) Nutrient agar is prepared at pH 6.8, representing a neutral medium, and at pH 8.2, representing an alkaline medium. The nutrient agars are prepared by adding 23 g of nutrient agar to one-liter of deionized water. In addition, the alkaline medium is prepared by adjusting a 0.04M solution of N-[tris-(hydroxymethyl)methyl]glycine buffered deionized water with concentrated sodium hydroxide to a pH of 8.5.
(§3) The test tubes containing the agar are cooled in a water bath until the temperature of the agar is 48° C. Then, an appropriate amount of the one percent solution of the test compound is added (except in the controls where no compound is added) to the respective test tubes so that the final concentrations are 500, […], 100, 50, 25, 10, 5, 2.5, 1.0 and zero parts per million of the test compound in the agar, thus having a known concentration of test compound dispersed therein. The contents of the test tubes are then transferred to respective petri plates. After drying for 24 hours, the petri plates containing nutrient agar are inoculated with bacteria and those containing malt yeast agar are inoculated with yeast and fungi.
(§4) The inoculation with bacteria is accomplished by using the following procedure. Twenty-four hour-cultures of each of the bacteria are prepared by incubating the respective bacteria in tubes containing nutrient broth for 24 hours at 30° C. in a shaker. Dilutions of each of the 24 hour-cultures are made so that nine separate suspensions (one for each of the nine test bacteria) are made, each containing 10^8 colony forming units (CFU) per mL of suspension of a particular bacteria. Aliquots of 0.3 mL of each of the bacterial suspensions are used to fill the individual wells of Steer's Replicator. For each microbial suspension, 0.3 mL was used to fill three wells (i.e., three wells of 0.3 mL each) so that for the nine different bacteria, 27 wells are filled. The Steer's Replicator is then used to inoculate both the neutral and alkaline pH nutrient agar petri plates.
(§5) The inoculated petri plates are incubated at 30° C. for 48 hours and then read to determine if the test compound which is incorporated into the agar prevented growth of the respective bacteria.

[2] = system: Candida albicans (Ca); test: Minimum inhibitory concentration (MIC) in malt yeast agar, Candida albicans
Experimental: as §1
(§6) Malt yeast agar is prepared at pH 5.5 by adding 3 g yeast extract and 45 g malt agar per liter of deionized water. The specific agar is dispensed in 30 mL aliquots into 25×200 mm test tubes, capped and autoclaved for 15 minutes at 115° C.
as §3
(§7) The inoculation with the yeast and fungi is accomplished as follows. Cultures of yeast and fungi are incubated for seven days on malt yeast agar at 30° C. These cultures are used to prepare suspensions by the following procedure. A suspension of each organism is prepared by adding 10 mL of sterile saline and 10 microliters of octylphenoxy polyethoxy ethanol to the agar slant of yeast or fungi. The sterile saline/octylphenoxy potyethoxy ethanol solution is then agitated with a sterile swab to suspend the microorganism grown on the slant. Each resulting suspension is diluted into sterile saline (1 part suspension: 9 parts sterile saline). Aliquots of these dilutions are placed in individual wells of Steer's Replicator and petri plates inoculated as previously described. The petri plates are incubated at 30° C. and read after 48 hours for yeast and 72 hours for fungi.

[3] = system: Escherichia coli (Ec); test: Minimum inhibitory concentration (MIC) in nutrient agar, Escherichia coli
Experimental: as §1, §2, §3, §4, §5

[4] = system: Penicillium chrysogenum (Pc); test: Minimum inhibitory concentration (MIC) in malt yeast agar, Penicillium chrysogenum; conditions: 72 h, pH 5.5, read-out: Minimum Inhibitory Concentration, PC
Experimental: as §1, §6, §3, §7

[5] = system: Pseudomonas aeruginosa (Pa); test: Minimum inhibitory concentration (MIC) in nutrient agar, Pseudomonas aeruginosa; conditions: 30° C., 48 hours, read-out: Minimum Inhibitory Concentration, Pa
Experimental: as §1, §2, §3, §4, §5

[6] = system: Staphylococcus aureus (Sa); test: Minimum inhibitory concentration (MIC) in nutrient agar, Staphylococcus aureus
Experimental: as §1, §2, §3, §4, §5

[7] = system: Klebsiella pneumoniae (Kp); test: Minimum inhibitory concentration (MIC) in nutrient agar, Klebsiella pneumoniae
Experimental: as §1, §2, §3, §4, §5

[8] = system: Aspergillus niger (An); test: Minimum inhibitory concentration (MIC) in malt yeast agar, Aspergillus niger
Experimental: as §1, §6, §3, §7

[9] = system: Saccharomyces cerevisiae (Sc); test: Minimum inhibitory concentration (MIC) in malt yeast agar, Saccharomyces cerevisiae
Experimental: as §1, §6, §3, §7

[10] = system: Aureobasidium pullulan (Ap); test: Minimum inhibitory concentration (MIC) in malt yeast agar, Aureobasidium pullulan
Experimental: as §1, §6, §3, §7

[11] = system: Proteus vulgaris (Pv); test: Minimum inhibitory concentration (MIC) in nutrient agar, Proteus vulgaris; conditions: 48 h
Experimental: as §1, §2, §3, §4, §5

[12] = system: Salmonella choleraesuis (Se); test: Minimum inhibitory concentration (MIC) in nutrient agar, Salmonella choleraesuis; conditions: Salmonella enterica
Experimental: as §1, §2, §3, §4, §5

[13] = system: Enterobacter aerogenes (Ea); test: Minimum inhibitory concentration (MIC) in nutrient agar, Enterobacter aerogenes; conditions: Klebsiella aerogenes, 48 h
Experimental: as §1, §2, §3, §4, §5

[14] = system: Trichoderma viride (Tv); test: Minimum inhibitory concentration (MIC) in malt yeast agar, Trichoderma viride; conditions: 72 h, pH 5.5, read-out: Minimum Inhibitory Concentration, Tv
Experimental: as §1, §6, §3, §7

[15] = system: Fusarium oxysporum (Fo); test: Minimum inhibitory concentration (MIC) in malt yeast agar, Fusarium oxysporum
Experimental: as §1, §6, §3, §7

[16] = system: Pseudomonas aeruginosa (PRD-10); test: Minimum inhibitory concentration (MIC) in nutrient agar, Pseudomonas aeruginosa PRD-10; conditions: 48 h
Experimental: as §1, §2, §3, §4, §5

[17] = 48 h, pH 8.2, read-out: Minimum Inhibitory Concentration, Bs
[18] = pH 6.8, nutrient agar, 30° C., 48 hours, read-out: Minimum Inhibitory Concentration, Bs
[19] = 48 h, pH 8.2, read-out: Minimum Inhibitory Concentration, Ec
[20] = 48 h, pH 8.2, read-out: Minimum Inhibitory Concentration, Kp
[21] = pH 6.8, nutrient agar, 30° C., 48 hours, read-out: Minimum Inhibitory Concentration, Kp
[22] = pH 6.8, read-out: Minimum Inhibitory Concentration, Pv
[23] = pH 8.2, read-out: Minimum Inhibitory Concentration, Pv
[24] = 48 h, pH 8.2, read-out: Minimum Inhibitory Concentration, SC
[25] = pH 6.8, read-out: Minimum Inhibitory Concentration, Ea
[26] = pH 8.2, read-out: Minimum Inhibitory Concentration, Ea
[27] = pH 6.8, read-out: Minimum Inhibitory Concentration, PRD
[28] = pH 8.2, read-out: Minimum Inhibitory Concentration, PRD

Compound	MIC [1, 17]	MIC [1, 18]	MIC [3, 19]	MIC [4]	MIC ([5]; pH 6.8, nutrient agar)	MIC ([5]; pH 8.2, nutrient agar)	MIC [7, 20]	MIC [7, 21]	MIC [11, 22]	MIC [11, 23]	MIC [12, 24]	MIC [13, 25]	MIC [13, 26]	MIC [14]	MIC [16, 27]	MIC [16, 28]	also measured
N#CSc1nsnc1-c1ccccc1Cl [Example IV, 4-(2-Chlorophenyl)-3-thiocyanatol-1,2,5-thiadiazole]	250 µg/mL (≈ 985 µM)	< 10 µg/mL	500 µg/mL (≈ 1970 µM)	10 µg/mL (≈ 39.4 µM)	> 500 µg/mL	500 µg/mL (≈ 1970 µM)	500 µg/mL (≈ 1970 µM)	> 500 µg/mL	> 500 µg/mL	500 µg/mL (≈ 1970 µM)	500 µg/mL (≈ 1970 µM)	> 500 µg/mL	500 µg/mL (≈ 1970 µM)	10 µg/mL (≈ 39.4 µM)	> 500 µg/mL	500 µg/mL (≈ 1970 µM)	MIC ([2]; pH 5.5, malt yeast agar, 30° C., 48 hours for yeast, read-out: Minimum Inhibitory Concentration, Ca): < 10 µg/mL; MIC ([3]; pH 6.8, nutrient agar, 30° C., 48 hours, read-out: Minimum Inhibitory Concentration, Ec): 250 µg/mL (≈ 985 µM); MIC ([6]; 48 h, pH 8.2, read-out: Minimum Inhibitory Concentration, Sa): 500 µg/mL (≈ 1970 µM); MIC ([6]; pH 6.8, nutrient agar, 30° C., 48 hours, read-out: Minimum Inhibitory Concentration, Sa): 25 µg/mL (≈ 98.5 µM); MIC ([8]; 72 h, pH 5.5, read-out: Minimum Inhibitory Concentration, An): 25 µg/mL (≈ 98.5 µM); MIC ([9]; 48 h, pH 5.5, read-out: Minimum Inhibitory Concentration, SC): 2.5 µg/mL (≈ 9.85 µM); MIC ([10]; pH 5.5, read-out: Minimum Inhibitory Concentration, Ap): 5 µg/mL (≈ 19.7 µM); MIC ([12]; pH 6.8, nutrient agar, 30° C., 48 hours, read-out: Minimum Inhibitory Concentration, SC): 100 µg/mL (≈ 394 µM); MIC ([15]; 72 h, pH 5.5, read-out: Minimum Inhibitory Concentration, Fo): 5 µg/mL (≈ 19.7 µM)
CSc1ccc(-c2nsnc2SC#N)cc1 [Example IX, 4-(4-Methylthiophenyl)-3-thiocyanato-1,2,5-thiadiazole]	250 µg/mL (≈ 942 µM)	< 10 µg/mL	500 µg/mL (≈ 1880 µM)	< 10 µg/mL	> 500 µg/mL	500 µg/mL (≈ 1880 µM)	500 µg/mL (≈ 1880 µM)	> 500 µg/mL	> 500 µg/mL	500 µg/mL (≈ 1880 µM)	500 µg/mL (≈ 1880 µM)	> 500 µg/mL	500 µg/mL (≈ 1880 µM)	< 10 µg/mL	> 500 µg/mL	500 µg/mL (≈ 1880 µM)	MIC ([2]; 48 h, pH 5.5, read-out: Minimum Inhibitory Concentration, Ca): 50 µg/mL (≈ 188 µM); MIC ([3]; 48 h, pH 6.8, read-out: Minimum Inhibitory Concentration, Ec): > 500 µg/mL; MIC ([6]; 48 h, pH 6.8, read-out: Minimum Inhibitory Concentration, Sa): 50 µg/mL (≈ 188 µM); MIC ([6]; pH 8.2, nutrient agar, 30° C., 48 hours, read-out: Minimum Inhibitory Concentration, Sa): 250 µg/mL (≈ 942 µM); MIC ([8]; pH 5.5, malt yeast agar, 30° C., 72 hours for fungi, read-out: Minimum Inhibitory Concentration, An): < 10 µg/mL; MIC ([9]; pH 5.5, malt yeast agar, 30° C., 48 hours for yeast, read-out: Minimum Inhibitory Concentration, SC): < 10 µg/mL; MIC ([10]; pH 5.5, malt yeast agar, 30° C., read-out: Minimum Inhibitory Concentration, Ap): < 10 µg/mL; MIC ([12]; 48 h, pH 6.8, read-out: Minimum Inhibitory Concentration, SC): > 500 µg/mL; MIC ([15]; pH 5.5, malt yeast agar, 30° C., 72 hours for fungi, read-out: Minimum Inhibitory Concentration, Fo): < 10 µg/mL
